According to BindingDB's records for doi:10.1016/j.str.2004.01.005 (University of Dundee, 2004):

Assays:
Assay in all cases: PDK1 Kinase Activity Assay
Settings in all cases: pH 7.5; 30 °C
[1] = biological target: T1, 3-phosphoinositide-dependent protein kinase 1 [51-359] (Human, UniProt O15530)
T1 construct: 51-359
T1 sequence (O15530 whole entry): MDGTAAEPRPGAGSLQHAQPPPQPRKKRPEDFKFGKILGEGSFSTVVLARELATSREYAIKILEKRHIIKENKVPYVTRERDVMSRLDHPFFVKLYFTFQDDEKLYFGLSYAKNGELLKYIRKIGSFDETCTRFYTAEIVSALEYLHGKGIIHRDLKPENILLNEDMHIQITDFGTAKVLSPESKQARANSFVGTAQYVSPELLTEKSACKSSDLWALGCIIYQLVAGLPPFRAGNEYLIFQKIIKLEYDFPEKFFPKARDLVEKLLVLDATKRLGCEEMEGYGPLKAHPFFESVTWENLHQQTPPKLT

[2] = biological target: T2, 3-phosphoinositide-dependent protein kinase 1 [51-359,A162V] (Homo sapiens, UniProt O15530, A162V)
T2 construct: 51-359

[3] = biological target: T3, 3-phosphoinositide-dependent protein kinase 1 [51-359,E166D] (Homo sapiens, UniProt O15530, E166D)
T3 construct: 51-359

[4] = biological target: T4, 3-phosphoinositide-dependent protein kinase 1 [51-359,L159M] (Homo sapiens, UniProt O15530, L159M)
T4 construct: 51-359

[5] = biological target: T5, 3-phosphoinositide-dependent protein kinase 1 [51-359,T222A] (Homo sapiens, UniProt O15530, T222A)
T5 construct: 51-359

[6] = biological target: T6, 3-phosphoinositide-dependent protein kinase 1 [51-359,V143T,T222A] (Homo sapiens, UniProt O15530, T222A/V143T)
T6 construct: 51-359

[7] = biological target: T7, 3-phosphoinositide-dependent protein kinase 1 [51-359,V143T] (Homo sapiens, UniProt O15530, V143T)
T7 construct: 51-359
T7 sequence (O15530 51-359 V143T): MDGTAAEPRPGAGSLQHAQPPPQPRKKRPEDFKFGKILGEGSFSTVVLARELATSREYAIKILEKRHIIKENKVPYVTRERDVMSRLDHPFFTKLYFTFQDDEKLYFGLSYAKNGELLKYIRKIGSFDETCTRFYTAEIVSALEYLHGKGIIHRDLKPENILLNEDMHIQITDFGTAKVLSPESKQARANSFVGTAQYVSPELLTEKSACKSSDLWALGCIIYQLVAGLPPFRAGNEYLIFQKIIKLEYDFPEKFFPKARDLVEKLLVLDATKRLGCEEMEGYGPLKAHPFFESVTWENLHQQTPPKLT

T6 sequence (O15530 51-359 V143T/T222A): as the sequence (O15530 51-359 V143T) above, with T172A counted along it
T3 sequence (O15530 51-359 E166D): as the sequence (O15530 51-359 V143T) above, with T93V, E116D counted along it
T5 sequence (O15530 51-359 T222A): as the sequence (O15530 51-359 V143T) above, with T93V, T172A counted along it
T2 sequence (O15530 51-359 A162V): as the sequence (O15530 51-359 V143T) above, with T93V, A112V counted along it
T4 sequence (O15530 51-359 L159M): as the sequence (O15530 51-359 V143T) above, with T93V, L109M counted along it

Row | IC50 [1] [µM] | IC50 [2] [µM] | IC50 [3] [µM] | IC50 [4] [µM] | IC50 [5] [µM] | IC50 [6] [µM] | IC50 [7] [µM] | Compound
1 | 9 | – | – | – | – | – | – | CN(C)CCCn1cc(C2=C(c3c[nH]c4ccccc34)C(=O)NC2=O)c2ccccc21 [2-[1-(3-dimethylaminopropyl)-indol-3-yl]-3-(indol-3-yl)maleimide]
2 | 14 | – | – | – | – | – | – | CN1CCCC1CCn1cc(C2=C(c3c[nH]c4ccccc34)C(=O)NC2=O)c2ccccc21 (stereo not given) [3-(1H-indol-3-yl)-4-{1-[2-(1-methylpyrrolidin-2-yl)ethyl]-1H-indol-3-yl}-2,5-dihydro-1H-pyrrole-2,5-dione]
3 | 4 | 3.4 | 5.7 | 3 | 3.8 | 2 | 2.5 | NCCCn1cc(C2=C(c3c[nH]c4ccccc34)C(=O)NC2=O)c2ccccc21 [Bisindolyl deriv. 19]
4 | 1 | – | – | – | – | – | – | Cn1cc(C2=C(c3cn(CCCN)c4ccccc34)C(=O)NC2=O)c2ccccc21 [Ro 31-7549]
